According to publication PMC9412555, “Benzothiazole Derivatives Endowed with Antiproliferative Activity in Paraganglioma and Pancreatic Cancer Cells: Structure–Activity Relationship Studies and Target Prediction Analysis” (Pharmaceuticals, 2022):
Like-named read-outs stand apart in the source and are kept apart here.

Columns and labels:
[1] = tested on: PTJ86i; design: method as in PMID 28594934; settings: PTJ86i paraganglioma, previously published; cited from earlier work
[2] = tested on: PTJ64i; test: MTT cell viability assay, PTJ64i; assay type: cell-based; settings: for Selectivity Index (SI): IC50 in normal (HFF-1) fibroblast cells/IC50 in PTJ64i; for IC50: PTJ64i paraganglioma, MTT, 72 h
Experimental: (§1) Compounds 4a–p were submitted to a preliminary MTT assay at a one-point screening concentration of 75 μM for 72 h, including 2b as a reference compound (Figure 3). […] The presence of the electron-donating methoxy group decreased the activity of 2b, in both the para and meta positions. […] Specifically, these compounds, namely 4d, 4e, 4f, 4h, 4i, 4j, 4k, 4l, and 4m, were tested at concentrations of 3, 6, 12 and 24 µM for 72 h. In addition, the nine compounds, together with 2b, were tested against human fibroblasts HFF-1, in order to evaluate their selectivity against tumor cells, as compared to normal cells. Effects on cancer or normal cell viability were extrapolated from concentration–response curves and are expressed as IC50 values in Table 2.
(§2) Pancreatic cancer (AsPC-1, BxPC-3, and Capan-2), paraganglioma (PTJ86i and PTJ64i) and normal fibroblast (HFF-1) cell lines were cultured as previously described. All compounds were dissolved in DMSO (stock solutions) and then diluted in culture media to the final working concentrations. In this way, the solutions were completely clear and devoid of any undissolved material by microscopic inspection. […] The effects of compounds 4a-p and 2b on cancer cell viability were tested by an MTT assay (Sigma-Aldrich, St. Louis, MO, USA), as described by Florio et al.. In the initial screening all compounds were tested at a one-point screening concentration of 75 μM for 72 h (five replica wells per each condition). […] For combined treatments, the experimental design was made according to the Chou–Talalay method for drug combination studies, as previously described.
(§3) IC50 values were extrapolated from concentration–response curves and calculated using the CompuSyn software. […] Based on this analysis, a CI < 1 indicates synergism, a CI = 1 indicates additive effects and a CI > 1 indicates antagonism. SI values were calculated as previously described. Comparisons of mean values were performed using an unpaired Student’s t-test. For multiple comparisons, a one-way ANOVA followed by Dunnett’s test were employed. A p-value < 0.05 was estimated as statistically significant.

[3] = tested on: BxPC-3; test: MTT cell viability assay, BxPC-3; assay type: cell-based; settings: for IC50: Homo sapiens, BxPC-3 pancreatic cancer, MTT, 72 h; for Selectivity Index (SI): IC50 in normal (HFF-1) fibroblast cells/IC50 in BxPC-3
Experimental: as §1, §2, §3

[4] = tested on: PTJ64i; design: method as in PMID 28594934; settings: PTJ64i paraganglioma, previously published; cited from earlier work
[5] = tested on: Capan-2; test: MTT cell viability assay, Capan-2; assay type: cell-based; settings: for IC50: Homo sapiens, Capan-2 pancreatic cancer, MTT, 72 h; for Selectivity Index (SI): IC50 in normal (HFF-1) fibroblast cells/IC50 in Capan-2
Experimental: as §1, §2, §3

[6] = tested on: AsPC-1; test: MTT cell viability assay, AsPC-1; assay type: cell-based; settings: for IC50: Homo sapiens, ASPC1, AsPC-1 pancreatic cancer, MTT, 72 h; for Selectivity Index (SI): IC50 in normal (HFF-1) fibroblast cells/IC50 in AsPC-1
Experimental: as §1, §2, §3

[7] = tested on: PTJ86i; test: MTT cell viability assay, PTJ86i; assay type: cell-based; settings: for Selectivity Index (SI): IC50 in normal (HFF-1) fibroblast cells/IC50 in PTJ86i; for IC50: PTJ86i paraganglioma, MTT, 72 h
Experimental: as §1, §2, §3

[8] = tested on: HFF-1; test: MTT cell viability assay, normal fibroblasts HFF-1; assay type: cell-based, human; settings: Homo sapiens; HFF-1 normal cells, MTT, 72 h
Experimental: All compounds were dissolved in DMSO (stock solutions) and then diluted in culture media to the final working concentrations. […] The effects of compounds 4a-p and 2b on cancer cell viability were tested by an MTT assay (Sigma-Aldrich, St. Louis, MO, USA), as described by Florio et al. [17]. In the initial screening all compounds were tested at a one-point screening concentration of 75 μM for 72 h (five replica wells per each condition).
IC50 values were extrapolated from concentration–response curves and calculated using the CompuSyn software [45]. […] SI values were calculated as previously described [46]. Comparisons of mean values were performed using an unpaired Student’s t-test. For multiple comparisons, a one-way ANOVA followed by Dunnett’s test were employed. A p-value < 0.05 was estimated as statistically significant.

[9] = tested on: pancreatic (AsPC-1, BxPC-3, and Capan-2) and paraganglioma (PTJ64i and PTJ86i) cancer cell lines; test: One-point MTT screening at 75 µM in cancer cell lines; assay type: cell-based; settings: one-point screening concentration of 75 μM for 72 h, five cancer cell lines
Experimental: as §1, §2
Figure 3 Screening of the effects of novel derivatives (4a–p) on the viability of pancreatic (AsPC-1, BxPC-3, and Capan-2) and paraganglioma (PTJ64i and PTJ86i) cancer cell lines. The lead compound 2b was included as a reference and the histograms show the relative decrease of cancer cell viability observed after treatments, as compared to 2b. Cell viability was assessed by an MTT assay using compounds at 75 µM for 72 h. Data shown are the means ± SD of duplicate experiments with quintuplicate determinations and are calculated as ratios relative to the reference compound 2b (dashed line).

Row | IC50 [3] | IC50 [6] | melting point | SMILES | IC50 [1] | Selectivity Index (SI) [2] | Selectivity Index (SI) [3] | IC50 [4] | IC50 [5] | Selectivity Index (SI) [5] | Selectivity Index (SI) [6] | Selectivity Index (SI) [7] | IC50 [8] | IC50 [2] | IC50 [7] | effect on cancer cell viability, potency compared with 2b [9]
1 | 15 µM | 12.4 µM | – | O=C(Nc1ccccc1)C(Sc1nc2cc(Cl)ccc2s1)c1ccccc1 (stereo not shown) [2b, reference compound] | 16.7 µM | 2.52 | 1.43 | 8.49 µM | 19.7 µM | 1.09 | 1.72 | 1.28 | 21.4 µM | – | – | –
2 | 18.9 µM | 10 µM | 243 °C (dec.) | CC(=O)Nc1ccc(NC(=O)C(Sc2nc3cc(Cl)ccc3s2)c2ccccc2)cc1 (stereo not shown) [4f, N-(4-Acetamidophenyl)-2-[(5-chlorobenzo[d]thiazol-2-yl)thio]-2-phenylacetamide] | – | 0.53 | 0.35 | – | 20.1 µM | 0.33 | 0.65 | 0.51 | 6.54 µM | 12.3 µM | 12.8 µM | greater antiproliferative activity than 2b
3 | 11.9 µM | 10.1 µM | 193 to 195 °C | O=C(Nc1cccc([N+](=O)[O-])c1)C(Sc1nc2cc(Cl)ccc2s1)c1ccccc1 (stereo not shown) [4k, 2-[(5-Chlorobenzo[d]thiazol-2-yl)thio]-N-(3-nitrophenyl)-2-phenylacetamide] | – | 3.12 | 1.96 | – | 16.9 µM | 1.38 | 2.31 | 1.73 | 23.3 µM | 7.47 µM | 13.5 µM | greater antiproliferative activity than 2b
